Source: ChEMBL document CHEMBL1126580, “Enantiospecific syntheses of alpha-(fluoromethyl)tryptophan analogues: interactions with tryptophan hydroxylase and aromatic L-amino acid decarboxylase” (J Med Chem, 1993)

Molecular target: T1, Aromatic-L-amino-acid decarboxylase (Mus musculus) (UniProt O88533)
T1 sequence (whole entry): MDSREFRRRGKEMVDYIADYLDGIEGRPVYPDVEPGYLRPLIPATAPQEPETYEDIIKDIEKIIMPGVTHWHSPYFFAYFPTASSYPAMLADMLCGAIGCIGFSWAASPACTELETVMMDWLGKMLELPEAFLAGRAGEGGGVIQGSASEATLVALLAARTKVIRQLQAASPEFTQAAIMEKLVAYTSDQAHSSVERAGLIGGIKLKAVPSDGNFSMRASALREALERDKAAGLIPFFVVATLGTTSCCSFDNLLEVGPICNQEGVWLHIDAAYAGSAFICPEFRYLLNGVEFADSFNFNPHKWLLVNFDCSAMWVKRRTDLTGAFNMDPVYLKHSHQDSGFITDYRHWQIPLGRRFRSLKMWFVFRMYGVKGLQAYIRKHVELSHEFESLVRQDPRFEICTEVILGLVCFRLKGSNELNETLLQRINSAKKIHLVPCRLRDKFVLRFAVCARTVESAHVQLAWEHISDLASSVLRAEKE
Test: First-order inactivation rate constant (k2) was evaluated as an inhibitor of murine liver aromatic L-amino acid decarboxylase (AADC)

k2: 2.26 min⁻¹
SMILES: N[C@@](CF)(Cc1c[nH]c2ccc(O)cc12)C(=O)O
